Results from article PMC7846792, “Perception of a divergent family of phytocytokines by the Arabidopsis receptor kinase MIK2” (Nature Communications, 2021).
No end group written: not given here.

Tested on: A. thaliana seedlings
Test: Seedling growth inhibition (fresh weight)
Assay type: in vivo, Arabidopsis thaliana
Conditions: mock mean = 1
Experimental: Four-day-old seedlings growing on MS plates were transferred individually into separate wells of transparent 48-well tissue culture plates (Greiner Bio-One) containing 500 μL of liquid MS media with/without elicitor addition. The plates were then transferred back to the growth conditions for an additional 10 days before seedlings were blot-dried and weighed.

## ETPPSRSRRGGGG [SCOOP1]
Col-0, 1 μM, replicate 1
  Seedling fresh weight (Fig3C), relative to mock: 0.767
Col-0, 1 μM, replicate 2
  Seedling fresh weight (Fig3C), relative to mock: 0.7214
Col-0, 1 μM, replicate 3
  Seedling fresh weight (Fig3C), relative to mock: 0.5418
Col-0, 1 μM, replicate 4
  Seedling fresh weight (Fig3C), relative to mock: 0.6909
Col-0, 1 μM, replicate 5
  Seedling fresh weight (Fig3C), relative to mock: 0.3379
Col-0, 1 μM, replicate 6
  Seedling fresh weight (Fig3C), relative to mock: 0.5266
Col-0, 1 μM, replicate 7
  Seedling fresh weight (Fig3C), relative to mock: 0.5662
Col-0, 1 μM, replicate 8
  Seedling fresh weight (Fig3C), relative to mock: 0.6453
Col-0, 1 μM, replicate 9
  Seedling fresh weight (Fig3C), relative to mock: 0.5753
Col-0, 1 μM, replicate 10
  Seedling fresh weight (Fig3C), relative to mock: 0.5996
Col-0, 1 μM, replicate 11
  Seedling fresh weight (Fig3C), relative to mock: 0.6118
Col-0, 1 μM, replicate 12
  Seedling fresh weight (Fig3C), relative to mock: 0.4961
Col-0, 10 μM, replicate 1
  Seedling fresh weight (Fig3C), relative to mock: 0.2426
Col-0, 10 μM, replicate 2
  Seedling fresh weight (Fig3C), relative to mock: 0.2002
Col-0, 10 μM, replicate 3
  Seedling fresh weight (Fig3C), relative to mock: 0.1668
Col-0, 10 μM, replicate 4
  Seedling fresh weight (Fig3C), relative to mock: 0.1698
Col-0, 10 μM, replicate 5
  Seedling fresh weight (Fig3C), relative to mock: 0.06065
Col-0, 10 μM, replicate 6
  Seedling fresh weight (Fig3C), relative to mock: 0.1729
Col-0, 10 μM, replicate 7
  Seedling fresh weight (Fig3C), relative to mock: 0.1759
Col-0, 10 μM, replicate 8
  Seedling fresh weight (Fig3C), relative to mock: 0.2305
Col-0, 10 μM, replicate 9
  Seedling fresh weight (Fig3C), relative to mock: 0.2092
Col-0, 10 μM, replicate 10
  Seedling fresh weight (Fig3C), relative to mock: 0.1607
Col-0, 10 μM, replicate 11
  Seedling fresh weight (Fig3C), relative to mock: 0.2244
Col-0, 10 μM, replicate 12
  Seedling fresh weight (Fig3C), relative to mock: 0.2032
mik2-1, 1 μM, replicate 1
  Seedling fresh weight (Fig3C), relative to mock: 1.15
mik2-1, 1 μM, replicate 2
  Seedling fresh weight (Fig3C), relative to mock: 1.076
mik2-1, 1 μM, replicate 3
  Seedling fresh weight (Fig3C), relative to mock: 1.026
mik2-1, 1 μM, replicate 4
  Seedling fresh weight (Fig3C), relative to mock: 1.019
mik2-1, 1 μM, replicate 5
  Seedling fresh weight (Fig3C), relative to mock: 1.076
mik2-1, 1 μM, replicate 6
  Seedling fresh weight (Fig3C), relative to mock: 0.9888
mik2-1, 1 μM, replicate 7
  Seedling fresh weight (Fig3C), relative to mock: 1.049
mik2-1, 1 μM, replicate 8
  Seedling fresh weight (Fig3C), relative to mock: 1.026
mik2-1, 1 μM, replicate 9
  Seedling fresh weight (Fig3C), relative to mock: 0.9619
mik2-1, 1 μM, replicate 10
  Seedling fresh weight (Fig3C), relative to mock: 0.9215
mik2-1, 1 μM, replicate 11
  Seedling fresh weight (Fig3C), relative to mock: 0.9619
mik2-1, 1 μM, replicate 12
  Seedling fresh weight (Fig3C), relative to mock: 0.9922
mik2-1, 10 μM, replicate 1
  Seedling fresh weight (Fig3C), relative to mock: 1.089
mik2-1, 10 μM, replicate 2
  Seedling fresh weight (Fig3C), relative to mock: 0.9298
mik2-1, 10 μM, replicate 3
  Seedling fresh weight (Fig3C), relative to mock: 0.9231
mik2-1, 10 μM, replicate 4
  Seedling fresh weight (Fig3C), relative to mock: 0.9738
mik2-1, 10 μM, replicate 5
  Seedling fresh weight (Fig3C), relative to mock: 0.9332
mik2-1, 10 μM, replicate 6
  Seedling fresh weight (Fig3C), relative to mock: 0.9028
mik2-1, 10 μM, replicate 7
  Seedling fresh weight (Fig3C), relative to mock: 1.008
mik2-1, 10 μM, replicate 8
  Seedling fresh weight (Fig3C), relative to mock: 0.9704
mik2-1, 10 μM, replicate 9
  Seedling fresh weight (Fig3C), relative to mock: 1.085
mik2-1, 10 μM, replicate 10
  Seedling fresh weight (Fig3C), relative to mock: 1.031
mik2-1, 10 μM, replicate 11
  Seedling fresh weight (Fig3C), relative to mock: 0.9569
mik2-1, 10 μM, replicate 12
  Seedling fresh weight (Fig3C), relative to mock: 0.967

## FTGPSGSGHGGGR [SCOOP10]
Col-0, 1 μM, replicate 1
  Seedling fresh weight (Fig3C), relative to mock: 1.053
Col-0, 1 μM, replicate 2
  Seedling fresh weight (Fig3C), relative to mock: 0.7731
Col-0, 1 μM, replicate 3
  Seedling fresh weight (Fig3C), relative to mock: 0.8401
Col-0, 1 μM, replicate 4
  Seedling fresh weight (Fig3C), relative to mock: 1.102
Col-0, 1 μM, replicate 5
  Seedling fresh weight (Fig3C), relative to mock: 0.9923
Col-0, 1 μM, replicate 6
  Seedling fresh weight (Fig3C), relative to mock: 0.9101
Col-0, 1 μM, replicate 7
  Seedling fresh weight (Fig3C), relative to mock: 0.9071
Col-0, 1 μM, replicate 8
  Seedling fresh weight (Fig3C), relative to mock: 0.8705
Col-0, 1 μM, replicate 9
  Seedling fresh weight (Fig3C), relative to mock: 0.8462
Col-0, 1 μM, replicate 10
  Seedling fresh weight (Fig3C), relative to mock: 0.7792
Col-0, 1 μM, replicate 11
  Seedling fresh weight (Fig3C), relative to mock: 0.9497
Col-0, 1 μM, replicate 12
  Seedling fresh weight (Fig3C), relative to mock: 0.9679
Col-0, 10 μM, replicate 1
  Seedling fresh weight (Fig3C), relative to mock: 0.6611
Col-0, 10 μM, replicate 2
  Seedling fresh weight (Fig3C), relative to mock: 0.655
Col-0, 10 μM, replicate 3
  Seedling fresh weight (Fig3C), relative to mock: 0.649
Col-0, 10 μM, replicate 4
  Seedling fresh weight (Fig3C), relative to mock: 0.4731
Col-0, 10 μM, replicate 5
  Seedling fresh weight (Fig3C), relative to mock: 0.5034
Col-0, 10 μM, replicate 6
  Seedling fresh weight (Fig3C), relative to mock: 0.7187
Col-0, 10 μM, replicate 7
  Seedling fresh weight (Fig3C), relative to mock: 0.652
Col-0, 10 μM, replicate 8
  Seedling fresh weight (Fig3C), relative to mock: 0.7096
Col-0, 10 μM, replicate 9
  Seedling fresh weight (Fig3C), relative to mock: 0.5944
Col-0, 10 μM, replicate 10
  Seedling fresh weight (Fig3C), relative to mock: 0.5519
Col-0, 10 μM, replicate 11
  Seedling fresh weight (Fig3C), relative to mock: 0.555
Col-0, 10 μM, replicate 12
  Seedling fresh weight (Fig3C), relative to mock: 0.6884
mik2-1, 1 μM, replicate 1
  Seedling fresh weight (Fig3C), relative to mock: 0.8644
mik2-1, 1 μM, replicate 2
  Seedling fresh weight (Fig3C), relative to mock: 1.019
mik2-1, 1 μM, replicate 3
  Seedling fresh weight (Fig3C), relative to mock: 1.022
mik2-1, 1 μM, replicate 4
  Seedling fresh weight (Fig3C), relative to mock: 0.7702
mik2-1, 1 μM, replicate 5
  Seedling fresh weight (Fig3C), relative to mock: 0.8139
mik2-1, 1 μM, replicate 6
  Seedling fresh weight (Fig3C), relative to mock: 0.8307
mik2-1, 1 μM, replicate 7
  Seedling fresh weight (Fig3C), relative to mock: 0.9619
mik2-1, 1 μM, replicate 8
  Seedling fresh weight (Fig3C), relative to mock: 1.049
mik2-1, 1 μM, replicate 9
  Seedling fresh weight (Fig3C), relative to mock: 1.086
mik2-1, 1 μM, replicate 10
  Seedling fresh weight (Fig3C), relative to mock: 1.002
mik2-1, 1 μM, replicate 11
  Seedling fresh weight (Fig3C), relative to mock: 1.026
mik2-1, 1 μM, replicate 12
  Seedling fresh weight (Fig3C), relative to mock: 1.123
mik2-1, 10 μM, replicate 1
  Seedling fresh weight (Fig3C), relative to mock: 0.8284
mik2-1, 10 μM, replicate 2
  Seedling fresh weight (Fig3C), relative to mock: 1.096
mik2-1, 10 μM, replicate 3
  Seedling fresh weight (Fig3C), relative to mock: 0.9366
mik2-1, 10 μM, replicate 4
  Seedling fresh weight (Fig3C), relative to mock: 0.8791
mik2-1, 10 μM, replicate 5
  Seedling fresh weight (Fig3C), relative to mock: 0.9096
mik2-1, 10 μM, replicate 6
  Seedling fresh weight (Fig3C), relative to mock: 0.8453
mik2-1, 10 μM, replicate 7
  Seedling fresh weight (Fig3C), relative to mock: 0.967
mik2-1, 10 μM, replicate 8
  Seedling fresh weight (Fig3C), relative to mock: 0.94
mik2-1, 10 μM, replicate 9
  Seedling fresh weight (Fig3C), relative to mock: 0.9806
mik2-1, 10 μM, replicate 10
  Seedling fresh weight (Fig3C), relative to mock: 0.896
mik2-1, 10 μM, replicate 11
  Seedling fresh weight (Fig3C), relative to mock: 1.031
mik2-1, 10 μM, replicate 12
  Seedling fresh weight (Fig3C), relative to mock: 1.096
